Measured values: ChEMBL document CHEMBL1201862, “PubChem BioAssay data set” (2004)
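Values below derive from 48-hour exposures of cells grown in 96-well plates, with endpoints linearly interpolated between the two concentrations bracketing the appropriate inhibition level. GI50 marks 50% less growth.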 The source made the active and inactive calls. Rule as the data show it: active = GI50 up to about 1.1 µM and inactive = higher.

Legend:
Test in all cases: NCI-60 cell line screen, 48 h
HCT-15 = test system: HCT-15
M14 = test system: M14
786-0 = test system: 786-0
SK-MEL-2 = test system: SK-MEL-2
CAKI-1 = test system: CAKI-1
MDA-MB-435 = test system: MDA-MB-435
SN12C = test system: SN12C
U-251 = test system: U-251
Malme-3M = test system: Malme-3M
OVCAR-8 = test system: OVCAR-8
NCI-H460 = test system: NCI-H460
COLO 205 = test system: COLO 205
KM12 = test system: KM12
NCI-H226 = test system: NCI-H226
Hs-578T = test system: Hs-578T
SK-MEL-5 = test system: SK-MEL-5
UACC-257 = test system: UACC-257
OVCAR-5 = test system: OVCAR-5
SR = test system: SR
HOP-62 = test system: HOP-62

Row | Compound | GI50 (HCT-15) | GI50 (M14) | GI50 (786-0) | GI50 (SK-MEL-2) | GI50 (CAKI-1) | GI50 (MDA-MB-435) | GI50 (SN12C) | GI50 (U-251) | GI50 (Malme-3M) | GI50 (OVCAR-8) | GI50 (NCI-H460) | GI50 (COLO 205) | GI50 (KM12) | GI50 (NCI-H226) | GI50 (Hs-578T) | GI50 (SK-MEL-5) | GI50 (UACC-257) | GI50 (OVCAR-5) | GI50 (SR) | GI50 (HOP-62)
1 | CC(=O)O[C@@H]1[C@H]2O[C@H]2[C@H]2O[C@@]2(COC(=O)c2ccccc2)[C@H]1OC(C)=O | > 100 µM | > 100 µM (inactive) | > 100 µM (inactive) | > 100 µM (inactive) | 99.1 µM (inactive) | > 100 µM (inactive) | > 100 µM (inactive) | > 100 µM (inactive) | > 100 µM (inactive) | 71.9 µM (inactive) | 34.2 µM (inactive) | > 100 µM (inactive) | > 100 µM (inactive) | > 100 µM (inactive) | > 100 µM (inactive) | > 100 µM (inactive) | > 100 µM (inactive) | > 100 µM (inactive) |  | 
2 | O=C(Nc1c(O)[nH]c(=S)[nH]c1=O)c1ccccc1 | > 100 µM | > 100 µM (inactive) | > 100 µM (inactive) | > 100 µM (inactive) | > 100 µM (inactive) |  | > 100 µM (inactive) | > 100 µM (inactive) | > 100 µM (inactive) | > 100 µM (inactive) | > 100 µM (inactive) | > 100 µM (inactive) | > 100 µM (inactive) | > 100 µM (inactive) |  | > 100 µM (inactive) | > 100 µM (inactive) | > 100 µM (inactive) | > 100 µM (inactive) | > 100 µM (inactive)
3 | O=C(NCC#CCO)C(F)(F)F | > 100 µM | > 100 µM (inactive) | > 100 µM (inactive) | > 100 µM (inactive) | > 100 µM (inactive) |  | > 100 µM (inactive) | > 100 µM (inactive) | > 100 µM (inactive) | > 100 µM (inactive) | > 100 µM (inactive) |  | > 100 µM (inactive) | > 100 µM (inactive) |  | > 100 µM (inactive) | > 100 µM (inactive) | > 100 µM (inactive) | > 100 µM (inactive) | > 100 µM (inactive)
4 | COc1ccc(-c2onc(-c3ccc([N+](=O)[O-])cc3)c2C2=NCCN2)cc1 | > 100 µM | > 100 µM (inactive) | 17 µM (inactive) | > 100 µM (inactive) | > 100 µM (inactive) |  | 67.5 µM (inactive) | 67.6 µM (inactive) | > 100 µM (inactive) | > 100 µM (inactive) | 45.9 µM (inactive) | > 100 µM (inactive) | > 100 µM (inactive) | 95.1 µM (inactive) |  | 83.6 µM (inactive) | 18.5 µM (inactive) | > 100 µM (inactive) | > 100 µM (inactive) | > 100 µM (inactive)
5 | COc1c2c(cc3c1C(=O)Cc1ccc4c(c1CN(C)CC3)OCO4)OCO2 | > 100 µM | 74.3 µM (inactive) | > 100 µM (inactive) | > 100 µM (inactive) | 79.3 µM (inactive) |  | > 100 µM (inactive) | 86.9 µM (inactive) | > 100 µM (inactive) | > 100 µM (inactive) | 67.3 µM (inactive) | 43.1 µM (inactive) | > 100 µM (inactive) | 59.2 µM (inactive) |  | 40.3 µM (inactive) | > 100 µM (inactive) | 29.3 µM (inactive) | 43.2 µM (inactive) | > 100 µM (inactive)
6 | CC(C1CCCC1=O)C1CCCC1=O (centres undefined) | > 100 µM | > 100 µM (inactive) | > 100 µM (inactive) | > 100 µM (inactive) | > 100 µM (inactive) |  | > 100 µM (inactive) | > 100 µM (inactive) | > 100 µM (inactive) | > 100 µM (inactive) | > 100 µM (inactive) | > 100 µM (inactive) | > 100 µM (inactive) | > 100 µM (inactive) | 92 µM (inactive) | > 100 µM (inactive) | > 100 µM (inactive) | > 100 µM (inactive) | > 100 µM (inactive) | > 100 µM (inactive)
7 | CN/N=C(\C)CC(=O)Nc1cccc(Cl)c1C | > 100 µM | > 100 µM (inactive) | > 100 µM (inactive) | > 100 µM (inactive) | > 100 µM (inactive) |  | > 100 µM (inactive) | > 100 µM (inactive) | > 100 µM (inactive) | > 100 µM (inactive) | > 100 µM (inactive) | > 100 µM (inactive) | > 100 µM (inactive) | > 100 µM (inactive) |  | > 100 µM (inactive) | > 100 µM (inactive) | > 100 µM (inactive) | 28.6 µM (inactive) | > 100 µM (inactive)
8 | C[C@@H](NC(=O)OC1C=CC2(CC1)C(=O)N(C)c1ccccc12)c1cccc2ccccc12 (some centres undefined) | 14.9 µM | 14.4 µM (inactive) | > 25 µM (inactive) | > 25 µM (inactive) | > 25 µM (inactive) | 9.57 µM (inactive) | > 25 µM (inactive) | > 25 µM (inactive) |  | > 25 µM (inactive) | 18.2 µM (inactive) | 15.1 µM (inactive) | 11.6 µM (inactive) | 21.8 µM (inactive) |  | 5.32 µM (inactive) | 12.2 µM (inactive) | > 25 µM (inactive) | 10.2 µM (inactive) | > 25 µM (inactive)
